Assay [1] deals with HGGX6 (H3.3 G34R paediatric high-grade glioma line). The assay is described as follows: area under dose-response curve of % growth inhibition (log2 RLU vs DMSO / staurosporine), 1e-11 to 1e-4 M (% x log10 M); higher = more growth inhibition. Put shortly: (§1)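 On 1% Geltrex-coated 384-well plates, patient-derived pHGG/DIPG cell lines and astrocytes were treated in triplicate across 10 threefold dilutions (mean top concentration 35 μM) for 7 days, with iAstro treated for 3 days, at 37 °C, 5% CO2. Log2-transformed CellTiter-Glo luminescence was normalised per plate to % activity between solvent and positive controls. Area under the curve was obtained by the trapezoid rule from a log-logistic fit, or from a smoothing spline when that fit failed.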

Assay [2] has as its system DIPGX37 (H3.3 K27M diffuse intrinsic pontine glioma line). The assay is described as above. Put shortly:
as §1

In assay [3] the test system is HGGX39 (paediatric high-grade glioma line). Described as above. Put shortly:
as §1

Assay [4] has as its system DIPGX29 (H3.3 K27M diffuse intrinsic pontine glioma line). The description is as above. Put shortly:
as §1

The subject of assay [5] is HGGX6. The assay is described as follows: EC50 (inflection of fitted growth-inhibition curve) (log10 M). Put shortly:
(§2)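 Patient-derived pHGG/DIPG cell lines and astrocyte controls were grown on 1% Geltrex-coated 384-well plates and exposed by pin tool to a 10-point threefold dilution series (mean top concentration 35 μM), in triplicate. Exposure was 7 days (iAstro 3 days) at 37 °C, 5% CO2. CellTiter-Glo luminescence was log2-transformed, normalised per plate to % activity between negative (solvent) and positive control wells, and pooled. EC50 and maximal response (yFin) come from the lowest-AICc three- or four-parameter log-logistic fit.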

The test system of assay [6] is DIPGX37. The assay is described as above. Put shortly: as §2
Assay [7] has as its system HGGX39. The assay is described as above. Put shortly:
as §2

In assay [8] the test system is DIPGX29. The description is as above. Put shortly:
as §2

The subject of assay [9] is HGGX6. Put plainly: maximal growth inhibition (yFin) relative to DMSO / staurosporine; higher = more efficacious. Put shortly: as §2
Assay [10] has as its system DIPGX37. The description is as above. Put shortly:
as §2

Assay [11] concerns HGGX39. Described as above. Put shortly:
as §2

The test system of assay [12] is DIPGX29. The assay is described as above. Put shortly: as §2

The values below come from the supplement of paper PMC8253809.

For the compound `Nc1c2ccccc2nc2ccccc12` [9-AMINOACRIDINE], the “area under dose-response curve” value with HGGX6 [1] is 65.1; in the assay on DIPGX37 [2] it was 70.3; in the assay with HGGX39 [3] it was 74; in the assay with DIPGX29 [4], 59.1. For the same compound, the “EC50 (log10 M)” value with HGGX6 [5] is -4.82; with DIPGX37 [6], -4.83; in the assay on HGGX39 [7], -4.83; in the assay on DIPGX29 [8], -4.84. Also, the maximal growth inhibition worked out at 80.2% in the assay on HGGX6 [9], 85.8% in the assay with DIPGX37 [10], 89.5% in the assay on HGGX39 [11] and 71% in the assay with DIPGX29 [12].

As to `CC[C@@]1(O)C[C@H](O[C@H]2C[C@H](N(C)C)[C@H](O[C@H]3C[C@H](O)[C@H](O[C@H]4CCC(=O)[C@H](C)O4)[C@H](C)O3)[C@H](C)O2)c2c(cc3c(c2O)C(=O)c2c(O)cccc2C3=O)[C@H]1C(=O)OC` [ACLARUBICIN], the “area under dose-response curve” value with HGGX6 [1] was determined as 111; in the assay with DIPGX37 [2], 173; in the assay on HGGX39 [3] it was 118; in the assay with DIPGX29 [4] it was 96.6. Besides, the “EC50 (log10 M)” value is -5.33 in the assay with HGGX6 [5], -6.79 with DIPGX37 [6], -5.35 in the assay with HGGX39 [7] and -5.38 in the assay on DIPGX29 [8]. The maximal growth inhibition with HGGX6 [9] came to 62.1%; with DIPGX37 [10], 62.1%; with HGGX39 [11] it was 65.6%; in the assay on DIPGX29 [12], 58.7%.

With `CCCCC(CC)CNC(=N)NC(=N)NCCCCCCNC(=N)NC(=N)NCC(CC)CCCC` (centres undefined) [ALEXIDINE], the “area under dose-response curve” value in the assay with HGGX6 [1] is 105; with DIPGX37 [2], 126; in the assay with HGGX39 [3], 126; in the assay with DIPGX29 [4], 130. The “EC50 (log10 M)” value was -5.48 in the assay with HGGX6 [5], -5.67 in the assay with DIPGX37 [6], -5.64 in the assay with HGGX39 [7] and -6.06 in the assay on DIPGX29 [8]. Moreover, the maximal growth inhibition in the assay on HGGX6 [9] was 73.3%; with DIPGX37 [10], 78.2%; in the assay on HGGX39 [11], 80.3%; with DIPGX29 [12], 63.3%.

As to `CCCCc1oc2ccccc2c1C(=O)c1cc(I)c(OCCN(CC)CC)c(I)c1` [AMIODARONE], the “area under dose-response curve” value in the assay with HGGX6 [1] came out at 63; in the assay on DIPGX37 [2], 63.2; in the assay with HGGX39 [3], 74.6; in the assay with DIPGX29 [4] it was 63.6. For the same compound, the “EC50 (log10 M)” value was -4.8 in the assay on HGGX6 [5], -4.76 in the assay with DIPGX37 [6], -4.83 with HGGX39 [7] and -4.79 in the assay with DIPGX29 [8]. Moreover, the maximal growth inhibition with HGGX6 [9] was determined as 78.8%; in the assay with DIPGX37 [10], 83%; in the assay on HGGX39 [11] it was 89.3%; in the assay with DIPGX29 [12] it was 80%.

`CCOC(=O)C1=C(COCCN)NC(C)=C(C(=O)OC)C1c1ccccc1Cl` (centres undefined) [AMLODIPINE]: the “area under dose-response curve” value is 64.5 in the assay with HGGX6 [1], 72.4 with DIPGX37 [2], 75.8 in the assay on HGGX39 [3] and 69.2 with DIPGX29 [4]. Further, the “EC50 (log10 M)” value with HGGX6 [5] is -4.75; in the assay with DIPGX37 [6], -4.82; in the assay on HGGX39 [7] it was -4.83; in the assay with DIPGX29 [8], -4.86. Also, the maximal growth inhibition in the assay with HGGX6 [9] is 85.6%; with DIPGX37 [10], 88%; in the assay on HGGX39 [11], 91.4%; in the assay with DIPGX29 [12] it was 80.4%.

Turning to `CCC(C)(C)c1ccc(CC(C)CN2C[C@@H](C)O[C@@H](C)C2)cc1` (some centres undefined) [AMOROLFINE], the “area under dose-response curve” value in the assay with HGGX6 [1] was 58.4; with DIPGX37 [2], 62.1; in the assay on HGGX39 [3], 103; in the assay on DIPGX29 [4], 47.6. The “EC50 (log10 M)” value was -5.36 in the assay with HGGX6 [5], -5.29 in the assay with DIPGX37 [6], -5.11 with HGGX39 [7] and -5.09 in the assay with DIPGX29 [8]. Further, the maximal growth inhibition in the assay with HGGX6 [9] is 41.6%; in the assay with DIPGX37 [10] it was 48%; in the assay with HGGX39 [11] it was 72.1%; in the assay on DIPGX29 [12], 33.2%.

`C[C@@H](O[C@H]1OCCN(Cc2n[nH]c(=O)[nH]2)[C@H]1c1ccc(F)cc1)c1cc(C(F)(F)F)cc(C(F)(F)F)c1` [APREPITANT]: the “area under dose-response curve” value worked out at 58.5 in the assay on HGGX6 [1], 66.2 in the assay with DIPGX37 [2], 64.5 in the assay with HGGX39 [3] and 76.6 with DIPGX29 [4]. The “EC50 (log10 M)” value was -4.81 in the assay with HGGX6 [5], -4.81 with DIPGX37 [6], -4.81 in the assay with HGGX39 [7] and -4.8 in the assay on DIPGX29 [8]. The maximal growth inhibition in the assay with HGGX6 [9] was 72.7%; in the assay with DIPGX37 [10], 81.7%; in the assay with HGGX39 [11], 80%; in the assay on DIPGX29 [12] it was 85.5%.
